The results in this text go back to patent US11285156B2, “Substituted piperazines as KRAS G12C inhibitors” (Amgen Inc., priority 2018, dated 2022).

Assay [1] deals with GDP-bound KRAS protein (aa 1-169), containing both G12C and C118A amino acid substitutions (Homo sapiens (Human), UniProt P01116, C118A/G12C). As to the kind of experiment: Coupled nucleotide exchange assay (SOS-mediated nucleotide exchange, AlphaScreen). It counts as biochemical. Conditions: 5 min compound pre-incubation; for IC50: read-out: Coupled exchange IC50 (5 min; μM).
Assay [2] concerns Phosphorylation of ERK1/2 in A549 cells. Nature of the assay: Phospho-ERK1/2 MSD assay in A549 cells. The class given is cell-based. The note with it: read-out: p-ERK IC50 (2 h, A549; μM), 2 h compound treatment, A549 cells, EGF stimulated. A digest of the protocol:
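MSD electrochemiluminescent read-out of phospho-ERK1/2 in RIPA lysates. Cells in RPMI 1640 with 10% FBS received titrated compound for 2 or 4 h, then 10 ng/mL EGF for 10 min before ice-cold PBS wash and lysis.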

Assay [3] deals with Phosphorylation of ERK1/2 in MIA PaCa-2 cells. As to the kind of experiment: Phospho-ERK1/2 MSD assay in MIA PaCa-2 cells. It counts as cell-based. Conditions: read-out: p-ERK IC50 (2 h, MiaPaCa-2; μM), 2 h compound treatment, MIA PaCa-2 cells, EGF stimulated. The procedure, abridged: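 Phospho-ERK1/2 measured by MSD electrochemiluminescence kit in RIPA lysates of MIA PaCa-2 cells. Cells were treated with compound titrations for 2 or 4 h at 37 °C, 5% CO2, followed by a 10 min pulse of 10 ng/mL EGF.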

Structures are written as SMILES. Where two headings read alike, the source gives them in different places.

GDP-bound KRAS protein (aa 1-169), containing both G12C and C118A amino acid substitutions, sequence (P01116 other isoform, or with tags, fused parts or gaps G12C/C118A): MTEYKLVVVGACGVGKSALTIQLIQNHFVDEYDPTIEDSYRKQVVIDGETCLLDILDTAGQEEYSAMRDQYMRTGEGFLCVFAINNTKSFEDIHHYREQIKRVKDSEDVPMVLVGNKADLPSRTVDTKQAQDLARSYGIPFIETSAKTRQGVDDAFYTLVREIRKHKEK

`C=CC(=O)N1C[C@H](C)N(c2nc(=O)n(CC(C)(C)C)c3nc(-c4ccccc4F)c(Cl)cc23)C[C@H]1C` [Example 110-1, 4-((2S,5R)-4-Acryloyl-2,5-dimethylpiperazin-1-yl)-6-chloro-7-(2-fluorophenyl)-1-neopentylpyrido[2,3-d]pyrimidin-2(1H)-one]: the half-inhibitory concentration (IC50) (usually the concentration that inhibits the measured activity by half) is 0.57 µM in assay [1]; more than 7.5 µM in assay [2] (Homo sapiens, A549, 2 h); 1.12 µM in assay [3] (Homo sapiens, MIA PaCa-2, 2 h).

As for `C=CC(=O)N1C[C@H](C)N(c2nc(=O)n(-c3c(C)ncnc3C(C)C)c3nc(-c4ccccc4F)c(Cl)cc23)C[C@H]1C` (single isomer, unassigned) [Example 194-1], the “Coupled exchange IC50 (5 min; μM)” value in assay [1] is 0.067 µM. The IC50 in assay [2] (Homo sapiens, A549, 2 h) is more than 7.5 µM; in assay [3] (Homo sapiens, MIA PaCa-2, 2 h), 0.033 µM.

Consider `C=CC(=O)N1C[C@H](C)N(c2nc(=O)n(-c3c(C(C)C)nc(OCCN(C)C)nc3C(C)C)c3nc(-c4ccccc4F)c(Cl)cc23)C[C@H]1C` [Example 157, 4-((2S,5R)-4-Acryloyl-2,5-dimethylpiperazin-1-yl)-6-chloro-1-(2-(2-(dimethylamino)ethoxy)-4,6-diisopropylpyrimidin-5-yl)-7-(2-fluorophenyl)pyrido[2,3-d]pyrimidin-2(1H)-one], for which the half-maximal inhibitory concentration (IC50) was 0.064 µM in assay [1]; more than 7.5 µM in assay [2] (Homo sapiens, A549, 2 h); 0.07 µM in assay [3] (Homo sapiens, MIA PaCa-2, 2 h).

For the molecule `C=CC(=O)N1C[C@H](C)N(c2nc(=O)n(-c3c(C)ccnc3C(C)C)c3nc(-c4ccc(F)cc4)c(Cl)cc23)C[C@H]1C` (atropisomer, axis not shown; (M)) [Example 92-57, (M)-6-Chloro-4-[(2S,5R)-2,5-dimethyl-4-prop-2-enoyl-piperazin-1-yl]-7-(4-fluorophenyl)-1-(2-isopropyl-4-methyl-3-pyridyl)pyrido [2,3-d]pyrimidin-2-one], the half-inhibitory concentration (IC50) was 0.126 µM in assay [1]; more than 7.5 µM in assay [2] (Homo sapiens, A549, 2 h); 0.126 µM in assay [3] (Homo sapiens, MIA PaCa-2, 2 h).

Regarding `C=CC(=O)N1C[C@H](C)N(c2nc(=O)n(-c3c(CC)ncnc3C(C)C)c3nc(-c4ccccc4C)c(Cl)cc23)C[C@H]1C` (single isomer, unassigned) [Example 109-2-1], the figures for the IC50 in assay [1], in assay [2] and in assay [3] were 0.059 µM, more than 7.5 µM and 0.065 µM, respectively.

In the case of `C=CC(=O)N1C[C@H](C)N(c2nc(=O)n(-c3c(CC)ccnc3C(C)C)c3nc(-c4ccccc4F)c(Cl)cc23)C[C@H]1C` (single isomer, unassigned) [Example 55-58-1], the IC50 was 0.03 µM in assay [1], more than 7.5 µM in assay [2] and 0.107 µM in assay [3].

On to `C=CC(=O)N1C[C@H](C)N(c2nc(=O)n(-c3c(C)ccnc3C(C)C)c3nc(-c4ccsc4C)c(Cl)cc23)C[C@H]1C` (atropisomer, axis not shown; (M)) [Example 92-3, (M)-6-Chloro-4-[(2S,5R)-2,5-dimethyl-4-prop-2-enoyl-piperazin-1-yl]-1-(2-isopropyl-4-methyl-3-pyridyl)-7-(2-methyl-3-thienyl)pyrido[2,3-d]pyrimidin-2-one], for which the IC50 was 0.095 µM in assay [1]; more than 7.5 µM in assay [2] (Homo sapiens, A549, 2 h); 0.094 µM in assay [3] (Homo sapiens, MIA PaCa-2, 2 h).

Take `C=CC(=O)N1C[C@H](C)N(c2nc(=O)n(-c3c(N(C)C)ccnc3C(C)C)c3nc(-c4ccccc4F)c(Cl)cc23)C[C@H]1C` (single isomer, unassigned) [Example 55-51-2]: the IC50 in assay [1] was 0.07 µM; in assay [2] it was more than 7.5 µM; in assay [3], 0.037 µM.

As for `C=CC(=O)N1C[C@H](C)N(c2nc(=O)n3c4nc(c(Cl)cc24)-c2ccccc2C/C=C\Cc2cccc(C(C)C)c2-3)C[C@H]1C` (single isomer, unassigned) [Example 146-2-2], the IC50 was 0.061 µM in assay [1]; 5.48 µM in assay [2] (Homo sapiens, A549, 2 h); 0.096 µM in assay [3] (Homo sapiens, MIA PaCa-2, 2 h).

As for `C=CC(=O)N1C[C@H](C)N(c2nc(=O)n(-c3c(C)ccnc3C(C)C)c3nc(-c4c(C)ccc5cn[nH]c45)c(Cl)cc23)C[C@H]1C` (atropisomer, axis not shown; (M)) [Example 92-15, (M)-6-Chloro-4-[(2S,5R)-2,5-dimethyl-4-prop-2-enoyl-piperazin-1-yl]-1-(2-isopropyl-4-methyl-3-pyridyl)-7-(6-methyl-1H-indazol-7-yl)pyrido[2,3-d]pyrimidin-2-one], the half-inhibitory concentration (IC50) in assay [1] is 0.094 µM; in assay [2] (Homo sapiens, A549, 2 h) it was more than 7.5 µM; in assay [3] (Homo sapiens, MIA PaCa-2, 2 h), 0.125 µM.

In the case of `C=CC(=O)N1C[C@H](C)N(c2nc(=O)n(-c3c(C4CC4)ccnc3C(C)C)c3nc(-c4ccccc4C)c(Cl)cc23)C[C@H]1C` (single isomer, unassigned) [Example 125-9], the “Coupled exchange IC50 (5 min; μM)” value in assay [1] was 0.035 µM. The IC50 in assay [2] is more than 7.5 µM; in assay [3], 0.048 µM.

For `C=CC(=O)N1[C@H](C)CN(c2nc(=O)n(-c3c(C(C)C)cnnc3C(C)C)c3nc(-c4ccccc4F)c(Cl)cc23)C[C@@H]1C` [Example 206-2, 4-(cis-4-Acryloyl-3,5-dimethylpiperazin-1-yl)-6-chloro-1-(3,5-diisopropylpyridazin-4-yl)-7-(2-fluorophenyl)pyrido[2,3-d]pyrimidin-2(1H)-one], the “Coupled exchange IC50 (5 min; μM)” value in assay [1] stood at 0.098 µM. Further, the IC50 was more than 7.5 µM in assay [2] and 0.139 µM in assay [3].

Take `C=CC(=O)N1C[C@H](C)N(c2nc(=O)n(-c3c(C(C)C)ccnc3C(C)C)c3nc(-c4ccccc4C(C)C)c(Cl)cc23)C[C@H]1C` (single isomer, unassigned) [Example 125-8]: the figures for the half-inhibitory concentration (IC50) in assay [1], in assay [2] and in assay [3] were 0.113 µM, 5.05 µM and 0.137 µM, respectively.

Consider `C=CC(=O)N1C[C@H](C)N(c2nc(=O)n(-c3c(C(C)C)nc(NCCN(C)C)nc3C(C)C)c3nc(-c4ccccc4F)c(Cl)cc23)C[C@H]1C` [Example 107-4, 6-Chloro-1-[2-[2-(dimethylamino)ethylamino]-4,6-diisopropyl-pyrimidin-5-yl]-4-[(2S,5R)-2,5-dimethyl-4-prop-2-enoyl-piperazin-1-yl]-7-(2-fluorophenyl)pyrido [2,3-d]pyrimidin-2-one], for which the concentration for half-maximal inhibition (IC50) in assay [1] is 0.051 µM; in assay [2] (Homo sapiens, A549, 2 h), more than 7.5 µM; in assay [3] (Homo sapiens, MIA PaCa-2, 2 h) it was 0.085 µM.

As for `C=CC(=O)N1C[C@H](C)N(c2nc(=O)n(-c3c(C)ccnc3C(C)C)c3nc(-c4ccccc4C(C)C)c(F)cc23)C[C@H]1C` (atropisomer, axis not shown; (M)) [Example 94-1, (M)-4-[(2S,5R)-2,5-Dimethyl-4-prop-2-enoyl-piperazin-1-yl]-6-fluoro-1-(2-isopropyl-4-methyl-3-pyridyl)-7-(2-isopropylphenyl)pyrido[2,3-d]pyrimidin-2-one], the IC50 in assay [1] is 0.077 µM; in assay [2], more than 7.5 µM; in assay [3] it was 0.107 µM.

Turning to `C=CC(=O)N1C[C@H](C)N(c2nc(=O)n(-c3c(C(C)C)nc(CN4CCCC4)nc3C(C)C)c3nc(-c4ccccc4F)c(Cl)cc23)C[C@H]1C` [Example 163, 6-Chloro-1-[4,6-diisopropyl-2-(pyrrolidin-1-ylmethyl)pyrimidin-5-yl]-4-[(2S,5R)-2,5-dimethyl-4-prop-2-enoyl-piperazin-1-yl]-7-(2-fluorophenyl)pyrido[2,3-d]pyrimidin-2-one], the concentration for half-maximal inhibition (IC50) in assay [1] is 0.127 µM; in assay [2] (Homo sapiens, A549, 2 h), more than 7.5 µM; in assay [3] (Homo sapiens, MIA PaCa-2, 2 h), 0.055 µM.

Consider `C=CC(=O)N1CCN(c2nc(=O)n(-c3c(C)ccnc3C(C)C)c3nc(-c4ccccc4F)c(Cl)cc23)C2CC21` (atropisomer, axis not shown; (M)) [Example 222, (M)-4-(5-Acryloyl-2,5-diazabicyclo[4.1.0]heptan-2-yl)-6-chloro-7-(2-fluorophenyl)-1-(2-isopropyl-4-methylpyridin-3-yl)pyrido[2,3-d]pyrimidin-2(1H)-one], for which the IC50 in assay [1] stood at 0.705 µM; in assay [2], 2.71 µM; in assay [3], 0.057 µM.

Consider `C=CC(=O)N1C[C@H](C)N(c2nc(=O)n(-c3c(C)ccnc3C(C)C)c3nc(-c4ccccc4)c(Cl)cc23)C[C@H]1C` (atropisomer, axis not shown; (M)) [Example 92-42, (M)-6-Chloro-4-[(2S,5R)-2,5-dimethyl-4-prop-2-enoyl-piperazin-1-yl]-1-(2-isopropyl-4-methyl-3-pyridyl)-7-phenyl-pyrido[2,3-d]pyrimidin-2-one], for which the IC50 in assay [1] was 0.117 µM; in assay [2] (Homo sapiens, A549, 2 h), more than 7.5 µM; in assay [3] (Homo sapiens, MIA PaCa-2, 2 h), 0.08 µM.

Consider `C=CC(=O)N1C[C@H](C)N(c2nc(=O)n(-c3c(C)ccnc3C(C)C)c3nc(-c4ccccc4CC)c(Cl)cc23)C[C@H]1C` (atropisomer, axis not shown; (M)) [Example 92-55, (M)-6-Chloro-4-[(2S,5R)-2,5-dimethyl-4-prop-2-enoyl-piperazin-1-yl]-7-(2-ethylphenyl)-1-(2-isopropyl-4-methyl-3-pyridyl)pyrido [2,3-d]pyrimidin-2-one], for which the IC50 in assay [1] was 0.021 µM; in assay [2] (Homo sapiens, A549, 2 h), more than 7.5 µM; in assay [3] (Homo sapiens, MIA PaCa-2, 2 h), 0.018 µM.

As to `C=CC(=O)N1C[C@H](C)N(c2nc(=O)n(-c3c(C(C)C)ncnc3C3CC3)c3nc(-c4ccccc4C)c(Cl)cc23)C[C@H]1C` (single isomer, unassigned) [Example 108-2-2], the IC50 in assay [1] was 0.181 µM; in assay [2], more than 7.5 µM; in assay [3] it was 0.148 µM.
